According to PubChem BioAssay (NCI):
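Growth conditions: 96-well plates. Treatment: test compound, 48 hours, 5 concentrations. Analysis: linear interpolation between bracketing concentrations; unreached endpoints set to highest concentration. GI50 marks 50% less growth. TGI denotes the concentration required for complete inhibition of growth.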

Legend:
Assay in all cases: DTP human tumour cell line panel, 48 h
NCI-H460 lung = system: NCI-H460 lung
SN12C renal = system: SN12C renal
SW-620 colon = system: SW-620 colon
KM12 colon = system: KM12 colon
SNB-19 CNS = system: SNB-19 CNS
SF-268 CNS = system: SF-268 CNS
NCI-H522 lung = system: NCI-H522 lung
HCT-15 colon = system: HCT-15 colon
HCT-116 colon = system: HCT-116 colon
UACC-62 melanoma = system: UACC-62 melanoma

Structure (SMILES) | GI50 (NCI-H460 lung) | TGI (NCI-H460 lung) | GI50 (SN12C renal) | TGI (SN12C renal) | GI50 (SW-620 colon) | TGI (SW-620 colon) | GI50 (KM12 colon) | TGI (KM12 colon) | GI50 (SNB-19 CNS) | TGI (SNB-19 CNS) | GI50 (SF-268 CNS) | TGI (SF-268 CNS) | GI50 (NCI-H522 lung) | TGI (NCI-H522 lung) | GI50 (HCT-15 colon) | TGI (HCT-15 colon) | GI50 (HCT-116 colon) | TGI (HCT-116 colon) | GI50 (UACC-62 melanoma) | TGI (UACC-62 melanoma)
Cc1ccc2c(c1)O/C(=C\c1ccc([N+](=O)[O-])o1)C2=O | 1.58 µM | 3.22 µM | 1.92 µM | 4.96 µM | 0.296 µM | 1.27 µM | 1.7 µM | 3.4 µM | 3.98 µM | 21.6 µM | 1.91 µM | 5.03 µM | 0.531 µM | 1.86 µM | 0.393 µM | 1.54 µM | 0.373 µM | 1.32 µM | 1.6 µM | 3.5 µM
CC(=O)c1cc2c(c3ccsc13)-c1ccccc1CC2 | 30.1 µM | > 100 µM | 34.7 µM | > 100 µM | 33.7 µM | > 100 µM | 12.5 µM | 54.9 µM | > 100 µM | > 100 µM | 43.4 µM | > 100 µM | 19.7 µM | 79.1 µM | 22.3 µM | > 100 µM | 20.3 µM | > 100 µM | 7.71 µM | > 100 µM
O=C(Nc1ccccc1O)c1ccc(CNC(=O)c2sccc2Nc2ccnc(C(F)(F)F)c2)cc1 | 5.19 µM | 21.4 µM | 13.7 µM | 55.1 µM | 5.36 µM | 20.4 µM | 12.2 µM | 32 µM | 13.2 µM | 31.1 µM | 7.04 µM | 27.7 µM | 5.06 µM | 27.7 µM | 6.54 µM | 26.8 µM | 4.61 µM | 15.2 µM | 4.13 µM | 20 µM
COc1ccc(Cl)cc1NC(=O)c1cccc([N+](=O)[O-])c1O |  | > 81.2 µM |  | > 75.3 µM |  | > 100 µM |  | > 72 µM |  | > 100 µM |  | > 100 µM |  | 38.6 µM |  | > 100 µM |  | 43.3 µM |  | 24.3 µM
O=C(O)c1cc(Cc2ccc(O)c(C(=O)O)c2)ccc1O (tested in a mixture with another compound) | 3.53 µM | 17.4 µM | 6.84 µM | 20.6 µM | 3.55 µM | 23.5 µM | 4.39 µM | 19.1 µM | 12.8 µM | 28.2 µM | 7.88 µM | 26.1 µM | 12.5 µM | 33.8 µM | 3.35 µM | 17 µM | 3.67 µM | 14.2 µM | 4.73 µM | 19.9 µM
CCCCCCC#CC#Cc1cccc(=O)o1 | 8.14 µM | 47.9 µM | 1.31 µM | 2.97 µM | 0.974 µM | 2.78 µM | 3.83 µM | 14.3 µM | 25.6 µM | 45.9 µM | 2.69 µM | 11.9 µM | 1.8 µM | 27.8 µM | 1.67 µM | 3.64 µM | 0.985 µM | 2.34 µM | 1.45 µM | 2.86 µM
C#Cc1cccc(Oc2ccc(NC(=O)CCl)cc2)c1 | 25.3 µM | > 82.5 µM | > 82.5 µM | > 82.5 µM | 24.8 µM | > 82.5 µM | > 82.5 µM | > 82.5 µM | > 82.5 µM | > 82.5 µM | > 82.5 µM | > 82.5 µM | 33.5 µM | > 82.5 µM | 6.36 µM | > 82.5 µM | 30.9 µM | > 82.5 µM | > 82.5 µM | > 82.5 µM
Oc1c(I)cc(-c2nc3ccccc3s2)cc1CN(Cc1ccccn1)Cc1ccccn1 | 0.327 µM | 5.94 µM | 0.446 µM | 11.6 µM | 0.402 µM | 3.32 µM | 0.4 µM | 17.4 µM | 0.387 µM | > 100 µM | 0.301 µM | 95.2 µM | 0.415 µM | 14.4 µM | 0.379 µM | > 100 µM | 0.494 µM | 12.4 µM | 0.207 µM | 0.563 µM
COc1ccc(CC(NC(=O)[C@H](C)NC(=O)CN2CCOCC2)C(=O)N[C@@H](Cc2ccccc2)C(=O)[C@@]2(C)CO2)cc1 (stereo not given in full) | 0.422 µM | 1.96 µM | 0.263 µM | 1.53 µM | 0.216 µM | 0.734 µM | 0.162 µM | 0.338 µM | 0.651 µM | > 100 µM | 0.245 µM | 0.708 µM | 0.278 µM | 0.908 µM | 5.64 µM | 76.3 µM | 0.181 µM | 0.49 µM | 0.182 µM | 0.479 µM
